Primed or numbered codes have the meaning given here. *: point of attachment. Bz′ = not defined here; NHPr = CCCN*; NHNH2 = NN*; NHOH = ON*
Columns and labels:
[1] = test system: osteoarthritis of the knees; test: Example 94 (second): osteoarthritic knees, intra-articular injection of N-Bz hydrazide; type: in vivo, human; conditions: 0.08% (0.8 mg/ml) in water, 1 ml per knee intra-articular
Protocol: A subject with osteoarthritis of the knees that progressively worsened over the years, evaluated the analgesic effectiveness of many topical preparations of tetrapeptide derivatives of the invention on numerous occasions. After such experiences they decided to self-inject […] knees with a sterile aqueous preparation of N-Bz-Tyr-Pro-Phe-Phe-NHNH2 (SEQ ID NO: 91) at a concentration of 0.08% (0.8 mg/ml) in water. Each knee was injected with 1 ml (0.8 mg) of the preparation via the sub-patellar route. […] The knees felt more comfortable than usual after 24 hours. The improvement from […] was judged to be more than 90% by clinical evaluation.

[2] = test system: psoriatic arthritis, fingers and wrists; test: Example 95: comparative analgesic efficacy on pain of psoriatic arthritis, topical; type: in vivo, human; conditions: for pain relief: 1% (w/v) in WEP442, topical to fingers and wrists
Text: […] Treatment of the subject over the years included methotrexate and other antimetabolites, and in recent years, drugs known as biologic medications. While these agents provided intervals of relief, none provided lasting benefit. Over the past decade, painful arthritis developed in both hands and knees, and in numerous joints of the fingers. Three related tetrapeptide derivatives, 1% (w/v) in vehicle WEP442, were topically applied to the fingers and wrists of both hands one at a time. […] Analgesic efficacy was rated by the subject as 75%.

headache = test: Example 52: analgesic effect on headache; type: in vivo, human; conditions: two 500 mg tablets, oral
Text: At 5:30 p.m., the headache pain was becoming more intense, at which time they topically applied a composition containing 1% (w/v) of N-Pg-Tyr-Pro-Phe-Phe-NH2 (SEQ ID NO: 44) in WEP442 to the entire forehead and temporal areas. […] There was no recurrence of symptoms over the next 3 days of follow-up time.

[3] = test system: trapezius muscle strain pain; test: Example 81: analgesic effect on pain from trapezius muscle strain, topical; type: in vivo, human; conditions: 0.7% (w/v) in propylene glycol: triethyl citrate : water (4:4:2)
Text: A subject with persistent pain localized to a site medial to the upper right scapula (shoulder blade) topically applied to that site a composition containing 0.7% (w/v) of N-Ac-Tyr-Pro-Phe-Phe-NHCH3(SEQ ID NO: 24) in propylene glycol: triethyl citrate : water (4:4:2 ratio).

[4] = test system: osteoarthritis of the fingers and wrists; test: Example 83: analgesic effect on osteoarthritic pain, topical; type: in vivo, human; conditions: 0.8% (w/v) in WEP442, topical
Protocol: A subject had osteoarthritis of the fingers and wrists for about 10 years, with substantial worsening over the past several months. Symptoms included painful finger joints and wrists. The pain was much worsened by flexion, so that making a first was too painful to try. Moreover, complete flexion had not been possible because of actual physical limitations. Anatomical signs of their disorder, e.g., enlarged finger joints, were conspicuous in their case. After 36 hours of no topical or systemic use of any analgesic agent, pain in the fingers and wrists was again present and substantial, so much so that they were unable to slice vegetables with a knife.

[5] = test system: psoriatic arthritis of finger joints; test: Example 84: analgesic effect on pain from psoriatic arthritis, topical; type: in vivo, human; conditions: 0.8% (w/v) in WEP442, topical
Text: A subject […], had extensive plaque psoriasis and painful arthritis of the interphalangeal joints of both index fingers, left thumb and left 5th finger, which compromised their work performance as an esthetician. The subject topically applied a solution composition containing 0.8% (w/v) of N-Ac-Tyr-Pro-Phe-Phe-NHCH3 (SEQ ID NO: 24) in WEP442 to their painful fingers.

lower back (lumbar) pain = test: Example 85: analgesic effect on lower back pain, topical; type: in vivo, human
Protocol: A subject had lower back (lumbar) pain associated with sitting in a crouched position at a low work table for about 3 hours. Upon their sitting up straight, the pain became more pronounced and persisted as they walked around for 15-20 minutes.

post-sunburn pain = test: Example 86: analgesic effect on sunburn pain, topical; type: in vivo, human
Protocol: A subject, experienced post-sunburn pain at the frontal hairline of the scalp, an area not earlier covered by sunscreen lotion at time of sun exposure several days earlier. They vigorously rubbed the area later to remove lingering skin scales, which caused irritation and pain. […] Relief lasted for 4 hours. […] The condition was then resolved with the use of a hydrating skin cream.

[6] = test system: psoriatic arthritis pain, fingers and wrists; test: Example 48: comparative analgesic efficacy, psoriatic arthritis pain of fingers and wrists, topical; type: in vivo, human; conditions: 1% (w/v) in WEP442, topical
Text: […] Treatment of the subject over the years included methotrexate and other antimetabolites, and in recent years drugs known as biologic medications. While these agents have provided intervals of relief, none has provided a lasting benefit. Over the past decade, painful arthritis developed in both wrists and in numerous joints of the fingers. Four related tetrapeptide derivatives, 1% (w/v) solution compositions in vehicle WEP442, one at a time, were topically applied to the fingers and wrists of both hands. […] Efficacy was rated by the subject as 4+. • (B) N-Ac-Tyr-Pro-Phe-Phe-NHNH2 (SEQ ID NO: 31) provided slow relief of pain, i.e. within about 10 minutes. […] Analgesic efficacy was judged by the subject to be 0 to 1+.

hangover headache = test: Example 54: analgesic effect on hangover headache, topical; type: in vivo, human; conditions: 1% (w/v) in WEP442, topical
Text: A subject with a “splitting” headache the morning after heavy drinking at a party the night before, topically applied to the entire head and neck a composition containing 1% (w/v) of N-Ac-Tyr-Pro-Phe-Phe-NHNH2 (SEQ ID NO: 31) in WEP442. […] They then drove their car approximately 90 miles to their residence.

sinus headaches = test: Example 55: analgesic effect on headache due to sinusitis, topical; type: in vivo, human; conditions: 1% (w/v) in WEP442, topical
Text: A subject, suffered from chronic recurrent “sinus headaches.” At the time of one such headache, they topically applied to the entire forehead and, with their eyes closed, to the sites overlying the frontal and maxillary sinuses a composition containing 1% (w/v) of N-Ac-Tyr-Pro-Phe-Phe-NHNH2 (SEQ ID NO: 31) in WEP442.

thermal burn of finger = test: Example 56: analgesic effect on finger pain caused by thermal burn, topical; type: in vivo, human; conditions: 1% (w/v) in WEP442, topical
Text: A subject, suffered a thermal burn of their right fourth finger from touching a hot kitchen plate. […] Six days later, the burned site appeared normal.

migraine = test: Example 80: analgesic effect on pain and nausea from migraine headache, topical; type: in vivo, human; conditions: 0.5% (w/v) in WEP442, topical at onset of symptoms
Text: A subject with a history of recurrent attacks of migraine, was provided a solution composition containing 0.5% (w/v) of N-Pg-Tyr-Pro-Phe-Phe-NH2 (SEQ ID NO: 44) in WEP442 and a solution composition containing 0.5% (w/v) of N-Ac-Tyr-Pro-Phe-Phe-NHNH2 (SEQ ID NO: 31) in WEP442. […] Sensations of nausea that might have lingered went away after several minutes following a second topical application.

[7] = test system: arthritic pain of wrists and fingers (psoriasis); test: Example 61: comparative analgesic efficacy in psoriatic arthritis of wrists and fingers, topical; type: in vivo, human; conditions: 1% (w/v) in WEP442, topical
Text: A subject with severe generalized psoriasis compared the topical efficacy of solution compositions of nine (9) tetrapeptide derivatives on arthritic pain of their wrists and fingers. All of the solution compositions contained 1% (w/v) of tetrapeptide derivative in WEP442.

mu receptors = mu receptors (Mus musculus, UniProt P42866); conditions: mouse brain; cited from earlier work
mu receptors, sequence (P42866 whole entry): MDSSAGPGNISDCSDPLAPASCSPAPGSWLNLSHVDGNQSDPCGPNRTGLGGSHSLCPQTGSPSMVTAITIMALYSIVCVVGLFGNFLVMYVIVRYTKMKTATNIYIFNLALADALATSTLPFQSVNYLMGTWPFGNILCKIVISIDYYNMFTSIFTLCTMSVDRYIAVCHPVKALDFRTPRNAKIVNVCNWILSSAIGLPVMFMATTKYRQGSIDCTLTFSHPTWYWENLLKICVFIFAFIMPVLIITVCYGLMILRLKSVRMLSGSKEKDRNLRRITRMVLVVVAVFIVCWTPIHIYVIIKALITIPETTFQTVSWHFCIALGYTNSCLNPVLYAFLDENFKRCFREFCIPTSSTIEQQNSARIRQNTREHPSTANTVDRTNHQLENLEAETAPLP

[8] = test system: rat rostral ventrolateral medulla neurons; conditions: in vitro; cited from earlier work
[9] = rats injected with 18 pmol; cited from earlier work

NNC(=O)[C@H](Cc1ccccc1)NC(=O)[C@H](Cc1ccccc1)NC(=O)[C@@H]1CCCN1C(=O)[C@H](Cc1ccc(O)cc1)NC(=O)c1ccccc1 [N-Bz-Tyr-Pro-Phe-Phe-NHNH2]
discomfort from the injections [1]: no discomfort from the injections
duration of pain relief [1]: 11 h
improvement by clinical evaluation [1]: more than 90%
pains in both knees [1]: gradually disappeared
analgesic efficacy rated by the subject ([2]; 1% (w/v) in WEP442, topical): 100%
duration of pain relief ([2]; 1% (w/v) in WEP442, topical): about 24 hours
pain relief [2]: rapid complete relief of pain

CC(=O)Nc1ccc(O)cc1 [acetaminophen, reference compound]
pain relief (headache): slight relief of pain

N-Ac-Tyr-Pro-Phe-Phe-NHCH2CH2CH3 (Ac-YPFF-NHPr; SMILES CCCNC(=O)[C@H](Cc1ccccc1)NC(=O)[C@H](Cc1ccccc1)NC(=O)[C@@H]1CCCN1C(=O)[C@H](Cc1ccc(O)cc1)NC(C)=O)
analgesic efficacy rated by the subject ([2]; 1% (w/v) in WEP442, topical): 75%
duration of pain relief ([2]; 1% (w/v) in WEP442, topical): less than 6 hours
time to pain relief ([2]; 1% (w/v) in WEP442, topical): more than 5 minutes
pain relief [2]: slower relief of pain

N-Ac-Tyr-Pro-Phe-Phe-NHCH3 (Ac-YPFF-NHMe; SMILES CNC(=O)[C@H](Cc1ccccc1)NC(=O)[C@H](Cc1ccccc1)NC(=O)[C@@H]1CCCN1C(=O)[C@H](Cc1ccc(O)cc1)NC(C)=O)
duration of pain relief [3]: about 4 hours
pain relief [3]: Complete relief of pain
time to pain relief [3]: ≤ 2 min
duration of pain relief [4]: about 17 hours
pain relief [4]: completely relieved all pain
time to pain relief [4]: 5 to 7 min
duration of pain relief [5]: about 7 hours
pain relief [5]: completely relieved
time to pain relief [5]: 3 to 4 min
recurrence (lower back (lumbar) pain; 0/8% (w/v) in WEP442, topical): did not return
time to pain relief (lower back (lumbar) pain; 0/8% (w/v) in WEP442, topical): ≤ 5 min
pain relief (lower back (lumbar) pain; (w/v) in WEP442, topical): complete resolution of all pain in the lower back
pain relief (post-sunburn pain; 0.8% (w/v) in WEP442, several applications over the next 24 hours): complete relief of pain
duration of relief (post-sunburn pain; 0.8% (w/v) in WEP442, topical): 4 h
pain relief (post-sunburn pain; 0.8% (w/v) in WEP442, topical): almost immediate relief of the painful discomfort

N-Ac-Tyr-Pro-Phe-Phe-NHNH2 (Ac-YPFF-NHNH2; SMILES CC(=O)N[C@@H](Cc1ccc(O)cc1)C(=O)N1CCC[C@H]1C(=O)N[C@@H](Cc1ccccc1)C(=O)N[C@@H](Cc1ccccc1)C(=O)NN)
pain relief [6]: Almost complete relief of pain
time to pain relief [6]: ≤ 10 min
pain relief (hangover headache): the headache ceased
time to pain relief (hangover headache): 1 to 2 min
pain relief (sinus headaches): headache completely subsided
time to pain relief (sinus headaches): ≤ 10 min
blister at burned site (thermal burn of finger): did not developed a blister
pain relief (thermal burn of finger): completely relieved the pain almost instantly
pain relief (migraine): complete relief of pain

N-Ac-Tyr-Pro-Phe-Phe-OEt (Ac-YPFF-OEt; SMILES CCOC(=O)[C@H](Cc1ccccc1)NC(=O)[C@H](Cc1ccccc1)NC(=O)[C@@H]1CCCN1C(=O)[C@H](Cc1ccc(O)cc1)NC(C)=O)
efficacy by clinical evaluation [7]: 0

N-Bz-Tyr-Pro-Phe-Phe-NHOH ({Bz′}-YPFF-{NHOH})
analgesic efficacy rated by the subject ([2]; 1% (w/v) in WEP442, topical): 90%
duration of pain relief ([2]; 1% (w/v) in WEP442, topical): about 10 hours
pain relief [2]: rapid complete relief of pain

N-Pg-Tyr-Pro-Trp-Phe-NH2 [reference compound]
pain relief [6]: slow, minimal relief of pain

Tyr-Pro-Trp-Phe-NH2 [reference compound]
affinity for mu receptors (mu receptors): very high affinity
spontaneous discharge of the medullary neurons [8]: significantly inhibited
desensitization of the motor response [9]: did not induce rapid desensitization of the motor response

— patent publication US20190248834A1, “ENDOMORPHIN-2, TETRAPEPTIDE DERIVATIVES THEREOF, AND USES THEREOF” (priority 2016, published 2019)
